# Measurements as given in patent US10456379B2, “Imidazole-based antimicrobial agents” (priority 2014, dated 2019).
# Read-outs that look alike come from different tables or passages of the source.
# Legend:
# [1] = system: vancomycin-resistant Enterococcus faecium (ATCC51559); assay: microbe, parasite or virus in culture; assay type: cell-based; conditions: ATCC51559; vancomycin-resistant Enterococcus faecium; read-out: Antibacterial activity, VREFm (vancomycin-resistant EFm), MIC class
# [2] = system: Staphylococcus epidermidis (PCI 1200, ATCC12228); assay: Broth microdilution MIC assay, Staphylococcus epidermidis; assay type: cell-based; conditions: read-out: Antibacterial activity, SE (Staphylococcus epidermidis), MIC class
# [3] = system: Streptococcus pneumoniae (Chester, ATCC49619); assay: Broth microdilution MIC assay, Streptococcus pneumoniae; assay type: cell-based; conditions: for MIC: Streptococcus pneumoniae, ATCC49619, read-out: Antibacterial activity, SP (Streptococcus pneumoniae), MIC class; for Antibacterial activity Streptococcus pneumoniae: MIC class score, MIC100, broth microdilution
# [4] = system: Enterococcus faecalis (ATCC29212); assay: Broth microdilution MIC assay, Enterococcus faecalis; assay type: cell-based; conditions: read-out: Antibacterial activity, EFs (Enterococcus faecalis), MIC class
# [5] = system: Staphylococcus aureus MRSA (COL); assay: Broth microdilution MIC assay, Staphylococcus aureus MRSA (COL); assay type: cell-based; conditions: for Antibacterial activity Staphylococcus aureus (MRSA): MIC class score, MIC100, broth microdilution, COL strain
# [6] = system: vancomycin-resistant Enterococcus faecalis (ATCC51575); assay: microbe, parasite or virus in culture; assay type: cell-based; conditions: ATCC51575; vancomycin-resistant Enterococcus faecalis; read-out: Antibacterial activity, VREFs (vancomycin-resistant EFs), MIC class
# [7] = system: Enterococcus faecium (AGR15, ATCCBAA-2127); assay: Broth microdilution MIC assay, Enterococcus faecium; assay type: cell-based; conditions: ATCCBAA2127, read-out: Antibacterial activity, EFm (Enterococcus faecium), MIC class
# [8] = system: Staphylococcus aureus MSSA (Newman); assay: Broth microdilution MIC assay, Staphylococcus aureus MSSA (Newman); assay type: cell-based; conditions: for Antibacterial activity Staphylococcus aureus (MSSA): MIC class score, MIC100, broth microdilution, Newman strain; for MIC: Staphylococcus aureus
# [9] = system: Mycobacterium smegmatis (mc(2)155); assay: Broth microdilution MIC assay, Mycobacterium smegmatis
# [10] = system: platensimycin-resistant Staphylococcus aureus (from MRSA COL); assay: Broth microdilution MIC assay, platensimycin-resistant MRSA; assay type: cell-based; conditions: 24 h, read-out: Antibacterial activity, MRSA strains with additional resistance, P (platensimycin), MIC class
# [11] = system: daptomycin-resistant Staphylococcus aureus (from MRSA COL); assay: Broth microdilution MIC assay, daptomycin-resistant MRSA; assay type: cell-based; conditions: 24 h, read-out: Antibacterial activity, MRSA strains with additional resistance, D (daptomycin), MIC class
# [12] = system: MRSA (COL) resistant to triclosan; assay: Broth microdilution MIC assay, triclosan-resistant MRSA; conditions: Staphylococcus aureus, read-out: Antibacterial activity, MRSA strains with additional resistance, T (triclosan), MIC class
# [13] = read-out: Antibacterial activity, MSSA (Staphylococcus aureus MSSA), MIC class
# [14] = read-out: Antibacterial activity Staphylococcus aureus (MSSA)
smiles,measurement,setting,value
Cc1nc(-c2ccc(-c3ccc(Cl)c(OC(F)(F)F)c3)o2)[nH]c1-c1ccc(Cl)cc1 [compound 44],MIC,[1],11 to 20 µg/mL
same,MIC,[2],11 to 20 µg/mL
same,MIC,[3],< 1 µg/mL
same,MIC,[4],20 to 50 µg/mL
same,Antibacterial activity Staphylococcus aureus (MRSA),[5],2 (MIC100 of 11-20 μg/ml)
same,MIC,[6],11 to 20 µg/mL
same,MIC,[7],20 to 50 µg/mL
Cc1[nH]c(-c2ccc(-c3ccc(C(F)(F)F)cc3)s2)nc1-c1ccccc1 [compound 46],Antibacterial activity Staphylococcus aureus (MSSA),[8],2 (MIC100 of 11-20 μg/ml)
same,MIC,[8]; [13],11 to 20 µg/mL
same,Antibacterial activity Streptococcus pneumoniae,[3],3 (MIC100 of 2-5 μg/ml)
Cc1[nH]c(-c2ccc(-c3ccc(C(F)(F)F)cc3)o2)nc1-c1ccc(Cl)cc1 [compound 47],MIC,[1],20 to 50 µg/mL
same,"Antibacterial activity, MS (Mycobacterium smegmatis), MIC class",[9],3 (MIC100 of 3-10 μg/ml)
same,MIC,[4],20 to 50 µg/mL
same,Antibacterial activity Staphylococcus aureus (MRSA),[5],3 (MIC100 of 3-10 μg/ml)
same,MIC,[6],20 to 50 µg/mL
same,MIC,[7],20 to 50 µg/mL
Cc1[nH]c(-c2ccc(-c3ccc(OC(F)(F)F)cc3)o2)nc1-c1ccc(Cl)cc1 [compound 48],MIC,[1],20 to 50 µg/mL
same,MIC,[2],11 to 20 µg/mL
same,MIC,[4],20 to 50 µg/mL
same,MIC,[6],20 to 50 µg/mL
Cc1[nH]c(-c2ccc(-c3ccc(OC(F)(F)F)c(Cl)c3)o2)nc1-c1ccc(Cl)cc1 [compound 50],Antibacterial activity Streptococcus pneumoniae,[3],3 (MIC100 of 2-5 μg/ml)
same,MIC,[3],2 to 5 µg/mL
same,MIC,"[5]; Staphylococcus aureus, MRSA, read-out: Antibacterial activity, MRSA (Staphylococcus aureus MRSA), MIC class",11 to 20 µg/mL
Cc1[nH]c(-c2ccc(-c3ccc(OC(F)(F)F)cc3Cl)o2)nc1-c1ccc(F)cc1 [compound 51],Antibacterial activity Staphylococcus aureus (MSSA),[8],2 (MIC100 of 11-20 μg/ml)
same,MIC,[8]; [13],11 to 20 µg/mL
same,MIC,[10],11 to 20 µg/mL
same,MIC,[11],1 to 3 µg/mL
same,MIC,[12],3 to 10 µg/mL
FC(F)(F)c1ccccc1-c1ccc(-c2nc(Cl)c(-c3ccccc3)[nH]2)o1 [compound 65],Antibacterial activity Staphylococcus aureus (MSSA),[8],2 (MIC100 of 11-20 μg/ml)
same,MIC,[8]; [13],11 to 20 µg/mL
same,MIC,[3],< 1 µg/mL
FC(F)(F)Oc1ccccc1-c1ccc(-c2nc(-c3ccccc3Cl)c[nH]2)o1 [compound 67],MIC,[2],11 to 20 µg/mL
same,MIC,[3],2 to 5 µg/mL
FC(F)(F)Oc1ccccc1-c1ccc(-c2nc(-c3ccc(Cl)cc3Cl)c[nH]2)o1 [compound 68],Antibacterial activity Staphylococcus aureus (MSSA),[8],2 (MIC100 of 11-20 μg/ml)
same,MIC,[8]; [13],11 to 20 µg/mL
same,MIC,[10],20 to 50 µg/mL
same,MIC,[3],6 to 10 µg/mL
same,MIC,[11],1 to 3 µg/mL
Cc1ccccc1-c1cnc(-c2ccc(-c3ccccc3C(F)(F)F)o2)[nH]1 [compound 69],MIC,[1],20 to 50 µg/mL
same,"Antibacterial activity, MS (Mycobacterium smegmatis), MIC class",[9],2 (MIC100 of 11-20 μg/ml)
same,MIC,[8]; [13],11 to 20 µg/mL
same,MIC,[3],< 1 µg/mL
same,Antibacterial activity Staphylococcus aureus (MRSA),[5],2 (MIC100 of 11-20 μg/ml)
FC(F)(F)c1ccccc1-c1ccc(-c2ncc(-c3ccccc3)[nH]2)o1 [compound 75],MIC,[8]; [14],11 to 20 µg/mL
same,Antibacterial activity Streptococcus pneumoniae,[3],3 (MIC100 of 2-5 μg/ml)
Cc1nc(-c2ccc(-c3ccccc3F)o2)[nH]c1-c1ccc(O)cc1 [compound 77],Antibacterial activity Staphylococcus aureus (MSSA),[8],3 (MIC100 of 3-10 μg/ml)
same,Antibacterial activity Streptococcus pneumoniae,[3],3 (MIC100 of 2-5 μg/ml)
Cc1nc(-c2ccc(-c3ccc(O)cc3F)o2)[nH]c1-c1ccc(O)cc1 [compound 120],Antibacterial activity Staphylococcus aureus (MSSA),[8],2 (MIC100 of 11-20 μg/ml)
Fc1ccc(-c2ccc(-c3nc4ccccc4[nH]3)o2)cc1 [compound 121],Antibacterial activity Streptococcus pneumoniae,[3],in- active
same,Antibacterial activity Staphylococcus aureus (MRSA),[5],in- active
Fc1ccc(-c2ccc(-c3nc4ccccc4[nH]3)o2)c(F)c1 [compound 122],Antibacterial activity Streptococcus pneumoniae,[3],in- active
same,Antibacterial activity Staphylococcus aureus (MRSA),[5],in- active
Cc1nc(-c2ccc(-c3cccc(O)c3)o2)[nH]c1-c1ccccc1 [compound 145],MIC,[8]; [14],11 to 20 µg/mL
same,Antibacterial activity Streptococcus pneumoniae,[3],2 (MIC100 of 6-10 μg/ml)
Cc1nc(-c2ccc(-c3ccccc3O)o2)[nH]c1-c1ccccc1 [compound 149],MIC,[8]; [14],11 to 20 µg/mL
Cc1nc(-c2ccc(-c3ccc(O)cc3)o2)[nH]c1-c1ccccc1 [compound 150],MIC,[8]; [14],11 to 20 µg/mL
same,Antibacterial activity Streptococcus pneumoniae,[3],2 (MIC100 of 6-10 μg/ml)
Cc1nc(-c2ccc(-c3ccc4cc(O)ccc4c3)o2)[nH]c1-c1ccccc1 [compound 154],MIC,[8]; [14],11 to 20 µg/mL
same,Antibacterial activity Streptococcus pneumoniae,[3],2 (MIC100 of 6-10 μg/ml)
